These are literature values, as cited in patent US20220395547A1, “LIPOSOMAL FORMULATIONS FOR DELIVERY OF CANNABINOIDS AND METHODS OF MAKING THEREOF” (Vella Bioscience, Inc., priority 2019, published 2022).

The series deals with microorganisms. The settings on record: known from the art.

Turning to `CC(O)CO` (stereo not shown) [propylene glycol], the “Concentration at which antimicrobial activity is present” value was at least 20%.
